Data reported in paper PMC5306082, “Physiologically based kinetic modeling of the bioactivation of myristicin” (Archives of Toxicology, 2016).

Columns and labels:
[1] = Glucuronidation of 1′-hydroxymyristicin, male rat liver S9; assay type: in vitro ADME
Experimental: The kinetic constants for the metabolic conversion of 1′-hydroxymyristicin to 1′-hydroxymyristicin glucuronide (HMG) by both male rat and human liver fractions were determined as described previously for the related 1′-hydroxyalkenylbenzenes (Punt et al. [2008]; van den Berg et al. [2012]; Punt et al. [2009]; Martati et al. [2011], [2012]; Al-Subeihi et al. [2011], [2012]). Briefly, incubations contained (final concentrations) 10 mM of UDPGA and 0.5 mg/ml of male Sprague–Dawley or pooled gender human S9 protein in 0.2 M Tris–HCl (pH 7.4) containing 10 mM of MgCl2. To overcome enzyme latency and to obtain maximal glucuronidation activity, incubations containing S9 were pretreated on ice with 0.025 mg/ml alamethicin added from a 200 times concentrated stock dissolved in methanol (Fisher et al. [2000]; Lin and Wong [2002]). After 15 min of alamethicin treatment, samples were pre-incubated at 37 °C for 1 min, and reactions were subsequently started by adding 1′-hydroxymyristicin at final concentrations of 10 to 1200 μM. 1′-Hydroxymyristicin was added from 100 times concentrated stock solutions in DMSO. The reaction mixtures were incubated for 30 and 180 min for rat and human, respectively, and terminated by adding 25 µl (0.25 times the incubation volume) of ice-cold ACN. Blank incubations were carried out in the absence of the cofactor UDPGA. Experiments were performed in triplicate. The longer incubation time in human samples was required due to the lower rate of glucuronidation. The formation of 1′-hydroxymyristicin glucuronide was linear with time and the S9 protein concentration under the experimental conditions described. All samples were centrifuged for 5 min at 16,000×g, and the supernatant was stored at −20 °C until ultra-performance liquid chromatography (UPLC) analysis.
1′-Hydroxymyristicin glucuronide was estimated based on the comparison of the peak area of the formed metabolite to the calibration curve of 1′-hydroxymyristicin at a wavelength of 210 nm. The flow rate was 0.6 ml/min. The gradient was made using a mixture of ACN and ultrapure water containing 0.1 % (v/v) TFA.

[2] = Sulfonation of 1′-hydroxymyristicin, male rat liver S9; assay type: in vitro ADME; conditions: S9 protein yield 143 mg/g liver
Experimental: The formation of 1′-sulfoxymyristicin was determined using incubations containing male rat liver Sprague–Dawley or pooled gender human liver S9 proteins, PAPS as a cofactor, and GSH, which acts as a scavenger of the reactive carbocation formed due to the unstable nature of the 1′-sulfoxy metabolite in an aqueous environment (van den Berg et al. [2012]; Martati et al. [2011]; Al-Subeihi et al. [2011]). Incubation mixtures containing (final concentrations) 10 mM of GSH, 0.2 mM of PAPS, and 3 mg/ml of S9 proteins in 0.1 M potassium phosphate (pH 8.2) were pre-incubated for 1 min at 37 °C. After the pre-incubation, 1′-hydroxymyristicin dissolved in DMSO was added in final concentrations ranging between 10 and 6000 μM while keeping the final content of DMSO at 1 % (v/v). The reaction was terminated after 360 min of incubation by adding 25 μl (0.25 times the incubation volume) of ice-cold ACN. The formation of the GSH conjugate of 1′-sulfoxymyristicin was linear with time and S9 protein concentrations under the experimental conditions used. Blank incubations were performed in the absence of PAPS. Incubations were performed in triplicate. All samples were centrifuged for 5 min at 16,000×g, and the supernatant was stored at −20 °C until ultra-performance liquid chromatography (UPLC) analysis.
Quantification of 1′-sulfoxymyristicin was done using UPLC analysis as described for the estimation of 1′-sulfoxysafrole (Martati et al. [2011]). […] The gradient for analysis of the metabolite consisted of a mixture of ACN and ultrapure water containing 0.1 % (v/v) TFA. The flow rate was 0.6 ml/min, starting at 0 % ACN and increasing the percentage of ACN to 20 % over 0.2 min, followed by an increase to 30 % ACN over 4.3 min, then increasing to 100 % over 0.3 min, and keeping it at 100 % for 0.2 min, and finally decreasing to 0 % over 0.2 min and keeping it at 0 % for 0.8 min. Separation and purification of the GSH adduct of 1′-sulfoxymyristicin was performed by collecting the peak of the metabolite from the UPLC column. […]

C=CC(O)c1cc(OC)c2c(c1)OCO2 (stereo not drawn) [1′-Hydroxymyristicin, 1′-hydroxymyristicin]
Km at 30 min ([1]; male, Sprague-Dawley, rat, pH 7.4, 1′-hydroxymyristicin to its glucuronide, S9, UDPGA, read-out: Km): 836 µM | catalytic efficiency of glucuronidation, fold higher in male rats than in human ([1]; rat vs human): 400 fold | k Scaled [2]: 0.15 ml/hr/g tissue
